Results taken from US20180117148A1, “COMPOUNDS, PHARMACEUTICAL COMPOSITIONS AND METHODS OF TREATMENTS OF IMMUNE RELATED DISEASES AND DISORDERS” (priority 2016, published 2018).
Several values for one entry are separate records, joined by “and”; a condition that tells them apart may be missing. Equal entries are not always repeated.

Assays:
[1] = system: inflammatory joint diseases like rheumatoid arthritis (RA) and psoriatic arthritis; details: etanercept in inflammatory joint diseases (RA, psoriatic arthritis); background figure; cited from earlier work
[2] = system: patients with either rheumatoid or psoriatic arthritis; test: Retrospective community-based study of etanercept with adjunctive neuroregulatory medications, 28-joint count (swollen and tender); format: in vivo, human
Procedure: A retrospective, community-based study assessed consecutive patients initiating biologic treatment of inflammatory arthritis. Improved outcomes were measured by a 28-joint count (swollen and tender). […] Consecutive patients with either rheumatoid or psoriatic arthritis initiated etanercept (25 mg/BIW). For partial response, neuroregulatory medications were added. Neuroregulatory medication options included bedtime dosing of either lorazepam or clonazepam, pramipexole, trazodone, other antidepressants and anticonvulsants.
Primary outcome: “≥70% reduction in 28-joint count (tender and swollen). Statistical analysis: LOCF and logistic regression (see data in FIGS. 1 and 2).

Substance: etanercept
- patients achieving American College of Rheumatology 70% improvement (ACR70) response [1]: About 27%
- patients receiving disease activity score (DAS) remission response [1]: 20.5%
- patients in whom NSAIDs were discontinued ([2]; 14 of 29 on NSAIDs at baseline): 48%
- patients in whom other DMARDs were discontinued ([2]; 22 of 28 on other DMARDs at baseline): 79%
- patients in whom methotrexate was discontinued ([2]; 24 of 32 on methotrexate at baseline (19.14 mg/wk)): 75%
- patients in whom prednisone was discontinued ([2]; 26 of 42 on prednisone at baseline (6.7 mg/d)): 62%
- patients achieving ≥70% reduction in joint count ([2]; by BOCF, 66 patients, etanercept 25 mg BIW, neuroregulatory medications added for partial response): 74%
- patients achieving ≥70% reduction in 28-joint count (tender and swollen), primary outcome ([2]; by LOCF, 52/66 patients, etanercept 25 mg BIW, neuroregulatory medications added for partial response (36/66), p<0.001): 79%
- mean 28-joint count after addition of etanercept ([2]; decreased from baseline 11.6±9.0, 66 patients, etanercept 25 mg BIW, neuroregulatory medications added for partial response): 1.3 and 1.3±4.3
